One test concerns primary cortical neurons. The experiment in a line: Hemin-induced toxicity in primary cortical neurons (MTT, LIVE/DEAD). Format: cell-based. To be noted: for EC50: primary cortical neurons, MTT assay, read-out: EC50 for abrogating hemin toxicity. The text has this:
(§1) FIGS. 1A-1L: Structurally diverse HIF PHD inhibitors stabilize HIF-1 and abrogate toxicity induced by hemin, a byproduct of blood breakdown, in cortical neurons hippocampal neuroblasts and striatal neuroblasts (not shown).
(§2) Secondary injury from ICH has been attributed to hemin, a breakdown product of hemoglobin (from lysed red blood cells). To investigate the mechanisms of hemin toxicity to neurons in vitro, this experiment exposed primary cortical neurons, immortalized hippocampal neuroblasts (HT22 cells), and immortalized striatal neuroblasts (Q7 cells) to hemin for 24 hours. As expected, a dose dependent loss in viability as measured by MTT reduction or LIVE/DEAD assay in all three cell types was observed. […] To examine whether iron-dependent HIF PHD enzymes can be modulated to protect neurons from hemin-induced toxicity, this experiment examined structurally diverse inhibitors of the HIF PHDs: desferoxamine, cyclopirox, and dihydroxybenzoic acid. […] To test this notion further using a chemical biological approach, the protective effects of cyclopirox, a HIF PHD inhibitor, and a cyclopirox analog with no PHD inhibitory activity but with similar metal binding affinity to cyclopirox were compared. As expected, only the cyclopirox analog with PHD inhibitory activity was neuroprotective.
(In general: Formazan colour is commonly taken as a measure of viable cells.)

The test system of test [1] is HIF PHDs. The experiment in a line: ODD-luciferase cell based assay.
A further test concerns HIF-1 protein. The experiment in a line: HIF-1 protein stabilisation in primary neurons (Western blot). Format: cell-based. The following applies: primary neurons, Western blot. From the text:
FIGS. 1A-1L: Structurally diverse HIF PHD inhibitors stabilize HIF-1 and abrogate toxicity induced by hemin, a byproduct of blood breakdown, in cortical neurons hippocampal neuroblasts and striatal neuroblasts (not shown). […] FIGS. 6A-6I. […] Expression of ATF4 was forced into primary neurons, which induces death of these neurons by MTT assay (FIG. 6D) or LIVE/DEAD staining, Green is live, Red is dead (FIG. 6E).
A general note: Immunoblotting shows a protein as a band on a membrane.

In test [2] the test system is immortalized hippocampal neuroblasts (HT22 cells). In words: Hemin-induced toxicity in hippocampal neuroblasts (MTT). The following applies: MTT assay, read-out: EC50 for abrogating hemin toxicity. Format: cell-based.
From the text: as §1
as §2, with “neuroprotective. […]” for “neuroprotective.”

Test [3] has as its system HIF PHDs. In words: ODD-luciferase reporter mice, in vivo bioluminescence imaging and tissue lysates. To be noted: in vivo bioluminescence imaging; intraperitoneal; adaptoquin 30 mg/kg. The text has this: FIGS. 3A-3G. Validation of adaptoquin as a novel HIF PHD inhibitor. […] Under steady state conditions, activity of HIF PHD2 with its co-substrate 2-oxoglutarate involves two peaks that represent non-hydroxylated and hydroxylated peptide. The hydroxylated peptide disappears in the presence of HIF PHD2 inhibition by adaptoquin. […] The reporter contains the ODD domain of HIF-1 which confers HIF PHD regulated stability on it. It is expressed in all cells of the body, but is destabilized in the absence of HIF PHD inhibition and stabilized in its presence. Quantitative measurements confirm stability of the ODD-luc in brain, kidney and liver (FIGS. 3D and 3E.).
To identify HIF PHD inhibitors suitable for testing in ICH, the experiment first sought to identify which of the known HIF PHD inhibitors could penetrate the blood brain barrier to inhibit HIF PHD activity in the CNS. To monitor HIF PHD activity dynamically, the experiment utilized mice that had previously been engineered to ubiquitously express the oxygen degradation domain (ODD) of HIF-1α fused to firefly luciferase. The ODD domain contains proline 402 and 564, which are hydroxylated by the HIF PHDs to degrade HIF-1 or the ODD-luciferase. Accordingly, these mice have been used previously to track HIF PHD activity in diverse organs in vivo using in vivo bioluminescence imaging.
To verify that the changes in light in the brain reflect parenchymal changes in ODD-luciferase levels rather than increases in changes in skin or dural ODD-luciferase, ODD-luciferase activity was measured normalized to total protein in lysates from distinct brain regions using a luminometer.
In general terms: Reporter assays use an easily measured gene product as a stand-in for the process of interest.

Test [4] has as its system immortalized striatal neuroblasts (Q7 cells). In words: Hemin-induced toxicity in striatal neuroblasts (MTT). Format: cell-based. To be noted: MTT assay, read-out: EC50 for abrogating hemin toxicity.
From the text: as §1, §2

Where two headings read alike, the source gives them in different places.

For orientation: EC50 means the concentration needed to bring the measured effect to its halfway point.

For the molecule `CC(=O)N(O)CCCCCNC(=O)CCC(=O)N(O)CCCCCNC(=O)CCC(=O)N(O)CCCCCN` [Desferoxamine], the concentration for a half-maximal effect (EC50) in the test on primary cortical neurons came out at 34.1 µM; in test [2], 50.8 µM; in test [4], 26.7 µM. The “ODD-luciferase activity in cell based assays” value in the test with HIF PHDs [1] was “induced the ODD-luciferase activity in cell based assays”. In the test with HIF-1 protein, the “Stabilisation of HIF-1 protein” value is recorded as “stabilize HIF-1 protein”. In addition, the “ODD-luciferase activity in brain” value in the test on HIF PHDs [3] is “failed to increase ODD-luciferase activity in the brain”.
Consider `Cc1cc(C2CCCCC2)n(O)c(=O)c1` [cyclopirox], for which, in the test with primary cortical neurons (Primary cortical neuron), the EC50 is 1.4 µM. Also, the “Prevention of hemin-induced death” value in the test on primary cortical neurons (neurons, FIGS. 1M, 1O-1R) is “prevents hemin-induced death”. The “ODD-luciferase activity in cell based assays” value in the test with HIF PHDs [1] was “induced the ODD-luciferase activity in cell based assays”. Also, the “Stabilisation of HIF-1 protein” value in the test on HIF-1 protein was “stabilize HIF-1 protein”. Further, the “ODD-luciferase activity in brain” value in the test with HIF PHDs [3] is given as “failed to increase ODD-luciferase activity in the brain”.
